Read-outs that look alike come from different tables or passages of the source.
Tests used:
[1] = test system: Plasmodium falciparum, K1 strain, IEF stage; details: cited from earlier work; for Pf SI (selectivity index for P. falciparum = IC50 L6/IC50 Pf): K1 strain vs L6
[2] = test system: L6 rat skeletal myoblast cell line; set-up: method as in PMID 21348447; details: data taken from ref 24; cited from earlier work
[3] = test system: Trypanosoma brucei rhodesiense, STIB 900 strain, trypomastigotes stage; set-up: method as in PMID 21348447; details: data taken from ref 24, read-out: IC50 T. b. rhod.; cited from earlier work
[4] = test system: Trypanosoma brucei rhodesiense, STIB 900 strain, trypomastigotes stage; experiment: In vitro anti-trypanosomal activity (growth inhibition); type: cell-based; details: STIB 900 strain, trypomastigotes, average of two independent assays, read-out: IC50 T. b. rhod.
Protocol: (§1) The in vitro activities against the protozoan parasites T.b. rhodesiense, and P. falciparum and cytotoxicity assessment against L6 cells were determined as reported elsewhere.

[5] = test system: L6 rat skeletal myoblast cell line; experiment: Cytotoxicity towards L6 cells; type: cell-based; details: L6 rat skeletal myoblast cell line; average of two independent assays; read-out: IC50 L6
Protocol: as §1

[6] = test system: Plasmodium falciparum, NF54 strain, IEF stage; experiment: In vitro antimalarial activity, NF54 drug sensitive strain; type: cell-based; details: for IC50: NF54 strain, IEF stage, average of two independent assays, read-out: IC50 P. falc.; for Pf SI (selectivity index for P. falciparum = IC50 L6/IC50 Pf): NF54 strain vs L6
Protocol: as §1

[7] = test system: GFP-transfected P. berghei strain ANKA; experiment: In vivo anti-malarial efficacy in P. berghei infected mice; set-up: species or system Plasmodium berghei; details: repeated ip dose of 50 (mg/kg)/day for four days
Protocol: Analogue 20 was selected for in vivo evaluation in Plasmodium berghei infected mice. […] No increase in mean survival time was observed.
In vivo anti-malarial activity was assessed as previously described. Groups of three female NMRI mice (20–22 g) were intravenously infected with 2 × 10^7 parasitized erythrocytes on day 0 with GFP-transfected P. berghei strain ANKA [32]. Compounds were formulated in 100% DMSO, diluted 10-fold in distilled water and administered intraperitoneally in a volume of 10 mL·kg^−1 on four consecutive days (4, 24, 48 and 72 h post infection). Parasitemia was determined on day 4 post infection (24 h after last treatment) by FACS analysis. Activity was calculated as the difference between the mean per cent parasitaemia for the control (n = 5 mice) and treated groups expressed as a per cent relative to the control group. The survival of the animals was usually monitored up to 30 days: a compound was considered curative if the animal survived to day 30 after infection with no detectable parasites. In vivo efficacy studies in mice were conducted according to the rules and regulations for the protection of animal rights (“Tierschutzverordnung”) of the Swiss “Bundesamt für Veterinärwesen”. They were approved by the veterinary office of Canton Basel-Stadt, Switzerland.

[8] = K1 strain, IEF stage, data taken from ref 24, read-out: IC50 P. falc.

IC50 ([4]; Trypanosoma brucei)	IC50 ([6]; Plasmodium falciparum)	Molecule	IC50 [5]	Pf SI (selectivity index for P. falciparum = IC50 L6/IC50 Pf) [6]	further results
0.27 µM	0.2 µM	COc1ccc2[nH]cc(C(=O)C(=O)NCCCNCCCCCCCCCCCCNCCCNC(=O)C(=O)c3c[nH]c4ccc(OC)cc34)c2c1.O=C(O)C(F)(F)F.O=C(O)C(F)(F)F [Compound 30, N^1,N^12-Bis(3-(2-(5-methoxy-1H-indol-3-yl)-2-oxoacetamido)propyl)dodecane-1,12-diaminium 2,2,2-trifluoroacetate]	17 µM	85	
0.18 µM	0.24 µM	COc1ccc2c(C(=O)C(=O)NCCCNCCCCCCCCCCCCNCCCNC(=O)C(=O)c3c[nH]c4cc(OC)ccc34)c[nH]c2c1.O=C(O)C(F)(F)F.O=C(O)C(F)(F)F [Compound 31, N^1,N^12-Bis(3-(2-(6-methoxy-1H-indol-3-yl)-2-oxoacetamido)propyl)dodecane-1,12-diaminium 2,2,2-trifluoroacetate]	6 µM	25	
0.26 µM	0.01 µM	COc1cccc2c(C(=O)C(=O)NCCCNCCCCCCCCCCCCNCCCNC(=O)C(=O)c3c[nH]c4c(OC)cccc34)c[nH]c12.O=C(O)C(F)(F)F.O=C(O)C(F)(F)F [Compound 32, N^1,N^12-Bis(3-(2-(7-methoxy-1H-indol-3-yl)-2-oxoacetamido)propyl)dodecane-1,12-diaminium 2,2,2-trifluoroacetate]	2.1 µM	210	
75 µM	0.18 µM	O=C(Cc1c[nH]c2ccccc12)NCCCNCCCCNCCCNC(=O)Cc1c[nH]c2ccccc12.O=C(O)C(F)(F)F.O=C(O)C(F)(F)F [Compound 36, N^1,N^4-Bis(3-(2-(1H-indol-3-yl)acetamido)propyl)butane-1,4-diaminium 2,2,2-trifluoroacetate]	74 µM	410	

Further lines, the molecule ahead of its results:

Molecule	IC50 ([4]; Trypanosoma brucei)	IC50 ([6]; Plasmodium falciparum)	IC50 [5]	Pf SI (selectivity index for P. falciparum = IC50 L6/IC50 Pf) [6]	further results
NCCCCNCCCNC(=O)C(=O)c1c[nH]c2ccccc12 [Compound 2, didemnidine A]					Pf SI (selectivity index for P. falciparum = IC50 L6/IC50 Pf) ([1]; data taken from ref 24): 0.59; IC50 [1, 8]: 41 µM; IC50 [2]: 24 µM; IC50 [3]: 59 µM
NCCCCNCCCNC(=O)C(=O)c1c[nH]c2cc(Br)ccc12 [Compound 3, didemnidine B]					Pf SI (selectivity index for P. falciparum = IC50 L6/IC50 Pf) ([1]; data taken from ref 24): 1.7; IC50 [1, 8]: 15 µM; IC50 [2]: 25 µM; IC50 [3]: 44 µM
CC(C)(C)OC(=O)NCCCCNCCCNC(=O)C(=O)c1c[nH]c2cc(Br)ccc12 [Compound 4]					Pf SI (selectivity index for P. falciparum = IC50 L6/IC50 Pf) ([1]; data taken from ref 24): 3.0; IC50 [1, 8]: 8.4 µM; IC50 [2]: 25 µM; IC50 [3]: 9.9 µM
COc1ccc2c(C(=O)C(=O)NCCCN(CCCCCCCCN(CCCNC(=O)C(=O)c3c[nH]c4cc(OC)ccc34)C(=O)OC(C)(C)C)C(=O)OC(C)(C)C)c[nH]c2c1 [Compound 19, Di-tert-butyl Octane-1,8-diylbis((3-(2-(6-methoxy-1H-indol-3-yl)-2-oxoacetamido)propyl)carbamate)]	6.1 µM	0.14 µM	≥ 120 µM		melting point: 92 °C
COc1cccc2c(C(=O)C(=O)NCCCN(CCCCCCCCN(CCCNC(=O)C(=O)c3c[nH]c4c(OC)cccc34)C(=O)OC(C)(C)C)C(=O)OC(C)(C)C)c[nH]c12 [Compound 20, Di-tert-butyl Octane-1,8-diylbis((3-(2-(7-methoxy-1H-indol-3-yl)-2-oxoacetamido)propyl)carbamate)]	61 µM	0.092 µM	≥ 120 µM	≥1300	increase in mean survival time [7]: No increase; reduction in parasitaemia ([7]; parasitemia on day 4 post infection): 20.9%
CC(C)(C)OC(=O)N(CCCCN(CCCNC(=O)Cc1c[nH]c2ccccc12)C(=O)OC(C)(C)C)CCCNC(=O)Cc1c[nH]c2ccccc12 [Compound 33, Di-tert-butyl Butane-1,4-diylbis((3-(2-(1H-indol-3-yl)acetamido)propyl)carbamate)]	7.1 µM	0.16 µM	19 µM	120	
COc1cc(CC(=O)NCCCNCCCCNCCCNC(=O)Cc2ccc(O)c(OC)c2)ccc1O [orthidine F, reference compound]					IC50 ([1]; K1 dual drug-resistant strain, read-out: IC50 antimalarial potency (P. falciparum)): 0.89 µM
N^1,N^4-Bis(3-(2-(7-methoxy-1H-indol-3-yl)acetamido)propyl)butane-1,4-diaminium 2,2,2-trifluoroacetate [Compound 16]			62 µM	48	IC50 [4]: 45 µM; IC50 [6]: 1.3 µM

Reference: publication PMC4071569, “Investigation of Indolglyoxamide and Indolacetamide Analogues of Polyamines as Antimalarial and Antitrypanosomal Agents” (Marine Drugs, 2014)
